Results reported in patent US20210260070A1, “LYSIN CF-301 RESENSITIZES METHICILLIN-RESISTANT STAPHYLOCOCCUS AUREUA (MRSA) TO PENICILLIN DERIVATIVES AND FIRST GENERATION CEPHALOSPORINS” (priority 2018, published 2021).
≈ marks a conversion by molar mass, not a printed value.

Columns and labels:
Assay type in all cases: cell-based, Staphylococcus aureus
[1] = system: S. aureus strain MW2; experiment: MIC of parental strain; details: Staphylococcus aureus, MW2
Procedure: (§1) An ex vivo analysis was performed on tissue samples recovered after PlySs2 treatment in a standard rabbit model of MRSA infective endocarditis (IE), as disclosed in Xiong et al., Comparative efficacy of telavancin and daptomycin in experimental endocarditis due to multi-clonotype MRSA strains, J. ANTIMIC. CHEMO. (2016); 71(1):2890-94. The standard rabbit IE model was used to confirm the impact of PlySs2 treatment on oxacillin MICs. Four days after treatment with a single-dose of PlySs2 (0.18 mg/kg to 1.4 mg/kg) in the IE model, isolates were recovered from valvular vegetations and plated on TSAB (non-selective condition, Tables 3 and 4) and TSAB supplemented with PlySs2 over a range of concentrations (selective conditions, Tables 5 and 6). MIC values of the MRSA isolates were determined for both PlySs2 and oxacillin. Tables 3 and 4 below show the MICs calculated for PlySs2 and oxacillin, respectively, for valvular vegetations subject to the non-selective conditions.

[2] = system: MRSA strain JMI 227; experiment: Broth microdilution checkerboard assay; design: unit not given here
Excerpt: (§2) In some embodiments, the present lysin polypeptides reduce the minimum inhibitory concentration (MIC) of an antibiotic. Any known method to assess MIC may be used. In some embodiments, a checkerboard assay is used to determine the effect of a lysin on antibiotic concentration. The checkerboard assay is based on a modification of the CLSI method for MIC determination by broth microdilution (See Clinical and Laboratory Standards Institute (CLSI), CLSI. 2015. Methods for Dilution Antimicrobial Susceptibility Tests for Bacteria That Grow Aerobically; Approved Standard-10th Edition. Clinical and Laboratory Standards Institute, Wayne, Pa., which is herein incorporated by reference in its entirety and Ceri et al. 1999. J. Clin. Microbiol. 37: 1771-1776, which is also herein incorporated by reference in its entirety).
(§3) Checkerboards are constructed by first preparing columns of e.g., a 96-well polypropylene microtiter plate, wherein each well has the same amount of antibiotic diluted 2-fold along the horizontal axis. […] The lysin and antibiotic dilutions are then combined, so that each column has a constant amount of antibiotic and doubling dilutions of lysin, while each row has a constant amount of lysin and doubling dilutions of antibiotic. Each well thus has a unique combination of lysin and antibiotic. Bacteria are added to the drug combinations at a given concentration. […] Summation fractional inhibitory concentrations (ΣFICs) are calculated for each drug and the minimum ΣFIC value (ΣFICmin) is used to determine the effect of the lysin/antibiotic combination.
(§4) A step-wise approach was used to evaluate PlySs2 as a resensitizing agent. First, broth microdilution checkerboard assays were used to determine fractional inhibitory concentration index (FICI) values for combinations of PlySs2 with three β-lactam antibiotics [oxacillin (OXA), nafcillin (NAF), and cefazoline (CFZ)] against nine different MRSA strains. Data from the checkerboard assays were generated to determine the interaction and potency of PlySs2 with the β-lactam antibiotics in comparison to their individual activities. This comparison is represented as the FICI value, whereby values of ≤0.5 are consistent with synergy, values of >0.5-<1 are highly-additive, values of 1-≤2 are indifferent, and values >2 are antagonistic. Representative single agent MICs are also shown, determined for each agent alone (initial) and in combinations (final). Resensitization occurs in synergistic combinations in which the β-lactam antibiotic MIC values fall below established breakpoints, e.g. a MIC value of ≤2 for β-lactam-sensitive isolates, a MIC value of ≥4 for β-lactam-resistant isolates. See Clinical and Laboratory Standards Institute (CLSI), CLSI. 2019. M100 Performance Standards for Antimicrobial Susceptibility Testing; 29th Edition. Clinical and Laboratory Standards Institute, Wayne, Pa.

[3] = system: MRSA strain MW2; experiment: Broth microdilution checkerboard assay; design: unit not given here
Excerpt: as §2, §3, §4

[4] = system: MRSA strain HPV 107; experiment: Broth microdilution checkerboard assay; design: unit not given here
Excerpt: as §2, §3, §4

[5] = system: MRSA strain CAIRD 426; experiment: Broth microdilution checkerboard assay; design: unit not given here
Excerpt: as §2, §3, §4

[6] = system: MRSA strain ATCC 43300; experiment: Broth microdilution checkerboard assay; design: unit not given here
Excerpt: as §2, §3, §4

[7] = system: MRSA strain JMI4789; experiment: Broth microdilution checkerboard assay; design: unit not given here
Excerpt: as §2, §3, §4

[8] = system: MRSA strain ATCC 33591; experiment: Broth microdilution checkerboard assay; design: unit not given here
Excerpt: as §2, §3, §4

[9] = system: MRSA strain NRS 11; experiment: Broth microdilution checkerboard assay; design: unit not given here
Excerpt: as §2, §3, §4

[10] = system: MRSA strain JMI 1280; experiment: Broth microdilution checkerboard assay; design: unit not given here
Excerpt: as §2, §3, §4

[11] = system: MRSA MW2 mutant and control isolates from valvular vegetations; experiment: MICs of mutant and control isolates from the rabbit IE study; details: for MIC: Staphylococcus aureus
Excerpt: The PlySs2 and oxacillin MICs of each mutant and control strain are shown below in Tables 7 and 8, wherein + indicates the presence of the mutation and—indicates an absence of the mutation.

[12] = system: MRSA isolates from valvular vegetations; experiment: MIC values of MRSA isolates recovered from valvular vegetations after PlySs2 treatment (ex vivo)
Procedure: as §1

[13] = in combination PlySs2 + OXA (final), * = Resensitization

Structure (SMILES): Cc1onc(-c2ccccc2)c1C(=O)N[C@@H]1C(=O)N2[C@@H]1SC(C)(C)[C@@H]2C(=O)O [OXA, oxacillin]
- MIC [1]: 32 µg/mL
- MICinitial ([2]; each agent alone (initial)): 16
- MICfinal [2, 13]: 1*
- MICinitial ([3]; each agent alone (initial)): 64
- MICfinal [3, 13]: 2*
- MICinitial ([4]; each agent alone (initial)): 8
- MICfinal [4, 13]: 0.5*
- MICinitial ([5]; each agent alone (initial)): 4
- MICfinal [5, 13]: 1*
- MICinitial ([6]; each agent alone (initial)): 8
- MICfinal [6, 13]: 0.5*
- MICinitial ([7]; each agent alone (initial)): 64
- MICfinal [7, 13]: 2*
- MICinitial ([8]; each agent alone (initial)): 256
- MICfinal [8, 13]: 1*
- MICinitial ([9]; each agent alone (initial)): 256
- MICfinal [9, 13]: 2*
- MICinitial ([10]; each agent alone (initial)): 256
- MICfinal [10, 13]: 1*
- MIC ([11]; Control #1 isolate): 64 µg/mL (≈ 159 µM)
- MIC ([11]; Control #2 isolate): 32 µg/mL (≈ 79.7 µM)
- MIC ([11]; Control #3 isolate): 64 µg/mL (≈ 159 µM)
- MIC ([11]; Mutant #1 (hlgCB near, mprF L291I, rlmH K159R, ΔSCCmec)): 1 µg/mL (≈ 2.49 µM)
- MIC ([11]; Mutant #2 (hlgCB near, graR I158S, rlmH K159R, ΔSCCmec)): 1 µg/mL (≈ 2.49 µM)
- Decrease in oxacillin MIC ([11]; two mutants from the valvular vegetations): 32 fold
- MIC ([12]; Staphylococcus aureus, MRSA, read-out: Oxacillin MIC after PlySs2 exposure): < 2 µg/mL
- Reduction in oxacillin MIC values ([12]; isolates after PlySs2 exposure in rabbit IE, selective conditions): greater than 16 fold
